{
  "source": "a melting point compilation (Tetko et al.)",
  "data": [
    {"units": {"melting point": "°C"}, "values": [
      {"smiles": "C=CC(=O)NC(=O)NC", "melting point": "174 to 176"},
      {"smiles": "O=C(O)CNC(=O)c1ccncc1", "melting point": "230 to 232"},
      {"smiles": "CCCCNc1c(N)n(CCC)c(=O)[nH]c1=O", "melting point": "201 to 203"},
      {"smiles": "O=C1Nc2c(Cl)cc(Br)cc2C1=O", "melting point": "225 to 227"},
      {"smiles": "O=C(O)c1cccc(S(=O)(=O)F)c1", "melting point": "152 to 154"},
      {"smiles": "Cc1cc(C=CC(=O)O)cnc1N", "melting point": "229 to 231"},
      {"smiles": "CCOc1ccc(N2C(=O)c3ccc(C(=O)O)cc3C2=O)cc1", "melting point": "265 to 267"},
      {"smiles": "Cn1cnc(S(=O)(=O)NC2CCCC2)c1Cl", "melting point": "136 to 138"},
      {"smiles": "CC(C)(C)C=CC(=O)O", "melting point": "60 to 62"},
      {"smiles": "NC(=O)c1cncc(O)c1", "melting point": "249 to 251"},
      {"smiles": "N#Cc1ccc(S(=O)(=O)Cl)c(F)c1", "melting point": "61 to 63"},
      {"smiles": "CCSc1cc(Br)ccc1C=O", "melting point": "50 to 52"},
      {"smiles": "COc1ccc(C(=O)O)cc1S(=O)(=O)N1CCCCC1C", "note": "(configuration not stated)", "melting point": "175 to 180"},
      {"smiles": "Cc1cc(OCC(=O)O)ccc1Cl", "melting point": "180 to 182"},
      {"smiles": "CCOC(=O)c1cc(C#N)c(SCC(=O)O)[nH]c1=O", "melting point": "195 to 197"},
      {"smiles": "O=C(O)c1ccc(S(=O)(=O)c2ccccc2)s1", "melting point": "192 to 194"},
      {"smiles": "COc1ccccc1C(N)(C(=O)O)C(F)(F)F", "note": "(configuration not stated)", "melting point": "97 to 99"},
      {"smiles": "Nc1cnn(CC(=O)Nc2cccnc2)c1", "melting point": "117 to 119"},
      {"smiles": "O=[N+]([O-])c1ccc(-c2nc(CCl)co2)cc1", "melting point": "119 to 121"},
      {"smiles": "CN(C)S(=O)(=O)c1ccc2c(c1)nc(CCC(=O)O)n2C", "melting point": "205 to 209"},
      {"smiles": "O=S(=O)(Cl)Cc1c(F)cccc1F", "melting point": "73 to 75"},
      {"smiles": "Nc1nnc(SCC2COc3ccccc3O2)s1", "note": "(configuration not stated)", "melting point": "161 to 163"},
      {"smiles": "NC(=O)C1CCc2ccccc2N1", "note": "(configuration not stated)", "melting point": "115 to 117"},
      {"smiles": "CN1C(=O)CC(C(=O)O)C1c1ccc(Cl)c(F)c1", "note": "(configuration not stated)", "melting point": "225 to 227"},
      {"smiles": "CC(C)(C)C(=O)N1CCCC(C(=O)O)C1", "note": "(configuration not stated)", "melting point": "179 to 181"},
      {"smiles": "CC(C)(C)OC(=O)Nc1cc2c(cc1N)OCCO2", "melting point": "119 to 121"},
      {"smiles": "Cc1ccccc1-n1cnnc1S", "melting point": "144 to 146"},
      {"smiles": "OC1CCc2cn[nH]c2C1", "note": "(configuration not stated)", "melting point": "154 to 156"},
      {"smiles": "CCOC(=O)c1sc(-c2ccc(Cl)cc2Cl)cc1N", "melting point": "100 to 102"},
      {"smiles": "CCOCCN1C(=O)C(=O)c2ccccc21", "melting point": "65 to 67"},
      {"smiles": "COc1ccc2cncnc2c1", "melting point": "83 to 85"},
      {"smiles": "Cc1nc(-c2ccc(Cl)cc2)sc1C(C)N", "note": "(configuration not stated)", "melting point": "42 to 44"},
      {"smiles": "C#CCOc1ccc(C(C)=O)cc1", "melting point": "72 to 74"},
      {"smiles": "Cc1cccc(OCC(O)CN)c1", "note": "(configuration not stated)", "melting point": "75 to 77"},
      {"smiles": "CC(=O)c1cccc(OCc2cc(C(=O)O)no2)c1", "melting point": "169 to 171"},
      {"smiles": "Nc1c(C(=O)O)cc(F)cc1[N+](=O)[O-]", "melting point": "219 to 221"},
      {"smiles": "CC(C)c1ccccc1-n1ccnc1S", "melting point": "173 to 177"},
      {"smiles": "O=C(O)CCCn1c(=O)oc2ccccc21", "melting point": "141 to 143"},
      {"smiles": "O=C(O)c1nnn(C2CC2)c1C(F)(F)F", "melting point": "90 to 92"},
      {"smiles": "Cc1cc(N)n(-c2cccc(Br)c2)n1", "melting point": "145 to 147"},
      {"smiles": "COc1ccc(N2CCC2=O)cc1", "melting point": "103 to 105"},
      {"smiles": "Nc1ccc(S(N)(=O)=O)c(F)c1", "melting point": "152 to 154"},
      {"smiles": "O=C(O)C(Cc1ccccc1)NS(=O)(=O)c1ccccc1F", "note": "(configuration not stated)", "melting point": "258 to 260"},
      {"smiles": "O=c1[nH]ccnc1Cl", "melting point": "159 to 161"},
      {"smiles": "COc1ccc(Cl)c(S(N)(=O)=O)c1", "melting point": "129 to 131"},
      {"smiles": "COc1cccc(-n2ccnc2S)c1", "melting point": "149 to 151"},
      {"smiles": "CC(C)c1nn(-c2ccc(Br)cc2)cc1C=O", "melting point": "99 to 101"},
      {"smiles": "Cc1c(O)cccc1OCCN1CCOCC1", "melting point": "117 to 119"},
      {"smiles": "O=C(O)C1CCCN1C(=O)c1cc(Cl)ccc1Cl", "note": "(configuration not stated)", "melting point": "194 to 196"},
      {"smiles": "Brc1ccc(Oc2ncccn2)cc1", "melting point": "114 to 116"},
      {"smiles": "CC(C)NC(=O)CCCl", "melting point": "67 to 69"},
      {"smiles": "Cc1nn(-c2ccc(Br)cc2)c(C)c1C=O", "melting point": "142 to 144"},
      {"smiles": "COc1cccc(N2C(=O)NC(=O)C2=O)c1", "melting point": "196 to 198"},
      {"smiles": "O=C(O)c1cccc(S(=O)(=O)NC2CCCC2)c1", "melting point": "209 to 211"},
      {"smiles": "N#Cc1ccccc1Sc1ccccc1C(=O)O", "melting point": "213 to 216"},
      {"smiles": "CN(Cc1ccccc1)S(=O)(=O)c1ccc(N)cc1", "melting point": "127 to 131"},
      {"smiles": "O=C(O)c1ncncc1Cl", "melting point": "153 to 155"},
      {"smiles": "O=C(O)Cc1cc(=O)[nH]c(=O)[nH]1", "melting point": "324 to 326"},
      {"smiles": "CCNc1nc(NCC)n2c(S)nnc2n1", "melting point": "98 to 100"},
      {"smiles": "CCC1(C(C)C)NC(=O)NC1=O", "note": "(configuration not stated)", "melting point": "164 to 166"},
      {"smiles": "Cc1ccccc1N1C(=O)c2ccc(C(=O)O)cc2C1=O", "melting point": "234 to 236"},
      {"smiles": "Cc1c(C(=O)O)cnn1-c1cccc(C(F)(F)F)c1", "melting point": "122 to 124"},
      {"smiles": "O=C(Cc1nc2ccccc2s1)c1ccccc1", "melting point": "113 to 115"},
      {"smiles": "Cc1cc(C)cc(-n2c(C)cc(C(=O)O)c2C)c1", "melting point": "169 to 171"},
      {"smiles": "O=C(O)CNC(=O)c1ccc(N2CCCC2=O)cc1", "melting point": "190 to 200"},
      {"smiles": "O=C1CCC(=O)N1CC1CO1", "note": "(configuration not stated)", "melting point": "61 to 63"},
      {"smiles": "COC(=O)c1ccc2c(c1)CCN2", "melting point": "74 to 76"},
      {"smiles": "N#CC1(NC(=O)c2ccccc2)CCCCC1", "melting point": "135 to 137"},
      {"smiles": "Cc1ccc2nc3ccccc3c(Cl)c2c1", "melting point": "121 to 123"},
      {"smiles": "Clc1cnc(Cl)c(-c2ccccc2)n1", "melting point": "52 to 54"},
      {"smiles": "O=c1nncc2[nH]cccc1-2", "melting point": "269 to 271"},
      {"smiles": "CC(C)(C)OC(=O)c1cccc(C=O)c1", "melting point": "31 to 33"}
    ]}
  ]
}
